Laboratory results: US20230150951A1, “2,5- OR 2,6-DISUBSTITUTED HYDROQUINONE DERIVATIVES WITH AT LEAST ONE CARBOXY, SULFO OR AMIDO GROUP USEFUL AS MEDICAMENTS” (OM PHARMA SA, priority 2020, published 2023)
“Also recorded” adds a separate entry of the source.

What was measured:
[1] = tested on: acute pancreatitis murine model; experiment: Caerulein-induced acute pancreatitis murine model; type: in vivo, Balb/c mice; design: Serum IL33 level / Serum TGF-B level: unit not given here
[2] = tested on: thioglycolate-induced peritonitis; experiment: Thioglycolate-induced peritonitis murine model; type: in vivo, C57BL/6J mice; conditions: 50 mg/kg i.p. 1 h prior to thioglycolate
Experimental: Therapeutic efficacy of the compounds of the present invention was assessed using thioglycolate-induced peritonitis murine models as described by Cook A D et al. (J Immunol. 2003; 171(9):4816-4823) and Tsai J M et al. (Blood Adv. 2019; 3(18):2713-2721. doi: 10.1182/bloodadvances.2018024026).
C57BL/6J mice were injected intraperitoneally (i.p.) with 1 mL of compounds at 50 mg/kg 1 h prior to the induction of peritonitis. Peritonitis was then induced with 1 ml of sterile thioglycolate broth 4% (wt/vol) or PBS as control. After 3 h, mice were anesthetized by i.p. injection with a solution of PBS containing 5 mg/ml ketamine and 1 mg/ml xylazine and peritoneal cavities were washed with 5 ml ice-cold sterile Ca2+/Mg2+-free HBSS 1×containing EDTA 2 mM. Peritoneal exudate cells (PECs) were centrifuged at 1200 rpm for 5 min at 4° C. and red cells lysed. PECs were washed, resuspended in PBS 10% FBS, incubated with anti-CD16/CD32 and mIgG FcR blockers and then stained with fluorescently conjugated antibodies to characterize migrated leukocytes (anti-CD45, anti-CD11b, anti-Ly6G, anti-CD8a, anti-CD4, anti-CD3). Cell viability was measured by 7-AAD exclusion. Specimens were acquired by flow cytometry using MACSQuant Analyzer (Miltenyi Biotec) and analysed using FlowJo software.
Animals: four C57BL/6J mice per group for each compound versus four vehicle treated mice.
Read out was done 1 h after thioglycolate injection.
Readout method: flow cytometry to characterise migrated leukocytes using anti-CD45, anti-CD11b, anti-Ly6G, anti-CD8a, anti-CD4, anti-CD3.
Results and statistical analysis: Results were analysed using FlowJo software. Data were shown as mean±SEM. Two-tailed Student's t test using a significance level of 0.05 is used for the statistical analysis.

[3] = 1st experiment, caerulein induced, 15 mg/kg IV, Ib-010a and IVc-059a 150 mg/kg PO, Pirfenidone 40 mg/kg IV
[4] = 1st experiment, terminal pancreatic tissue, 15 mg/kg IV, Ib-010a and IVc-059a 150 mg/kg PO, Pirfenidone 40 mg/kg IV
[5] = 1st experiment, terminal serum, 15 mg/kg IV, Ib-010a and IVc-059a 150 mg/kg PO, Pirfenidone 40 mg/kg IV
[6] = second experiment, IV, 15 mg/kg, Pirfenidone 100 mg/kg

O=C(O)c1cc(O)cc(CS(=O)(=O)Cc2cc(O)cc(C(=O)O)c2O)c1O [IVc-059a, 3-((2,5-Dihydroxy-3-carboxyphenyl)methylsulfonylmethyl)-2,5-dihydroxybenzoic acid]
Acinar cell necrosis (group mean score) [1, 3]: 1.0 | Haemorrhage (group mean score) [1, 3]: 1.0 | Interstitial oedema (group mean score) [1, 3]: 1.0 | Leukocyte infiltration (group mean score) [1, 3]: 1.0 | Mean terminal BW (% of initial) [1, 3]: 93.3 % of initial | Mean terminal pancreas weight [1, 3]: 0.09 g | Pancreas histopathology observations (H&E) [1, 3]: Mild oedema less observed; also recorded: Mild haemorrhage less observed; also recorded: Mild acinar cell necrosis observed; also recorded: Mild leukocyte infiltration observed; also recorded: Some pancreatic islet hyperplasia observed; also recorded: Disruption to the basophilic region | Schmidt Score (H&E) ([1]; 1st experiment, caerulein induced, 15 mg/kg IV, Ib-010a and IVc-059a 150 mg/kg PO, Pirfenidone 40 mg/kg IV, induced + vehicle = 10, non-induced = 0): 4.0 | Pancreas IL33 level [1, 4]: 86 ± 23 | Pancreas MPO activity [1, 4]: 2.88 | Pancreas TGF-B level [1, 4]: 231 ± 199 | Serum IL33 level [1, 5]: 46.54 | Serum TGF-B level [1, 5]: 5.69 | Serum amylase level [1, 5]: 38.56 | Serum lipase level [1, 5]: 10.21 | TGF-B levels in pancreas ([1]; first experiment, IV): decreased significantly | pancreatic tissue levels of IL33 ([1]; first experiment, IV, compared to the induced group): significant decrease | Global Schmidt score ([1]; first experiment, vs caerulein control animals): especially improved | Schmidt Score ([1]; second experiment, H&E sections): lower scores than the positive control pirfenidone | Amylase [1, 6]: 41.149 mU/mL | IL-33 [1, 6]: 215 ± 84 ng/mL | Lipase [1, 6]: 4.324 mU/mL | MPO [1, 6]: 1.813 ± 0.405 U/mg | Schmidt Score [1, 6]: 10.63 ± 2.33 | TGF-B [1, 6]: 403 ± 84 ng/mL | Trichome staining (Fibrosis % area) [1, 6]: 1.048 ± 0.449 % area | Lipase activity in serum ([1]; second experiment, pirfenidone 100 mg/kg, compounds 15 mg/k, vs vehicle treated animals): significantly lower than that in vehicle treated animals | MPO activity in pancreatic tissue ([1]; second experiment, vs induced vehicle treated controls): significantly lower than induced vehicle treated controls | % of reduction, CD4+ lymphocytes, treated over vehicle treated mice [2]: 6.0% | % of reduction, CD8+ lymphocytes, treated over vehicle treated mice [2]: 23.0% | % of reduction, Leukocytes (CD45+ cells), treated over vehicle treated mice [2]: 4.0% | % of reduction, PMNs (CD11b-Ly6G double + cells), treated over vehicle treated mice [2]: −13.0%
